# Reference: patent US9562053B2, “Benzo-fused heterocyclic derivatives useful as agonists of GPR120” (Janssen Pharmaceutica NV, priority 2013, dated 2017)
# Target: T1, Human GPR120 short form (Homo sapiens, UniProt Q5NUL3)
# T1 construct: expressed in transfected cells
# T1 sequence (Q5NUL3 1-361): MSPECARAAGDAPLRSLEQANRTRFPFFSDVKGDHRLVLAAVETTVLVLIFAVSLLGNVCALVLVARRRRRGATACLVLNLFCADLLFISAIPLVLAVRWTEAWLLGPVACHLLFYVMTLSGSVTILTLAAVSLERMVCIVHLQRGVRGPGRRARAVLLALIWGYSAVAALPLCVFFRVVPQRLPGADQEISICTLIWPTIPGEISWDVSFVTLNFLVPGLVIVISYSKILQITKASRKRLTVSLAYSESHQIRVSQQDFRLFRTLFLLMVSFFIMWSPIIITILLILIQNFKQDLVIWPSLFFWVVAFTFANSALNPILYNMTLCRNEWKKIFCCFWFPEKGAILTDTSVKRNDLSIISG
# Assay: Human GPR120 in Calcium Flux Assay, Procedure Calcium A (2500 cells/well)
# Type: cell-based
# How it was run: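 HEK293 cells stably expressing GPR120 short isoform, 2500 cells/well, serum-starved 1 h, loaded with Fluo-4 NW plus probenecid (30 min 37 °C, 15 min RT). Compounds prepared at 0.012–100 μM, 0.2% DMSO final. FLIPR calcium signal over 300 s as Fmax−Fmin; EC50 from variable-slope fit (Hill <2).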
row,Compound,EC50 [µM]
1,"Cc1cc2cc3c(c(COc4ccc(CCC(=O)O)c(C)c4C)c2o1)OCO3 [Compound 82, 3-{2,3-Dimethyl-4-[(6-methylfuro[2,3-f][1,3]benzodioxol-4-yl)methoxy]phenyl}propanoic acid]",0.153
2,"CCc1cc2ccc(OC(F)F)c(COc3ccc(CCC(=O)O)c(C)c3C)c2o1 [Compound 70, 3-(4-{[6-(Difluoromethoxy)-2-ethyl-1-benzofuran-7-yl]methoxy}-2,3-dimethylphenyl)propanoic acid]",0.162
3,"Cc1c(CCC(=O)O)ccc(OCc2cc(Cl)cc3cnn(C)c23)c1C [Compound 7, 3-{4-[(5-Chloro-1-methyl-1H-indazol-7-yl)methoxy]-2,3-dimethylphenyl}propanoic acid]",0.124
4,"Cc1cc2cc(Cl)c(C)c(COc3c(F)cc(CCC(=O)O)cc3F)c2o1 [Compound 86, 3-{4-[(5-Chloro-2,6-dimethyl-1-benzofuran-7-yl)methoxy]-3,5-difluorophenyl}propanoic acid]",0.207
5,"Cc1cc2cc(Cl)cc(COc3c(F)cc(CCCO)cc3F)c2s1 [Compound 93, 3-{4-[(5-Chloro-2-methyl-1-benzothiophen-7-yl)methoxy]-3,5-difluorophenyl}propan-1-ol]",1.6
6,"CCc1cc2cc(Cl)c(OCCOC)c(COc3ccc(CCC(=O)O)c(C)c3C)c2o1 [Compound 63, 3-(4-{[5-Chloro-2-ethyl-6-(2-methoxyethoxy)-1-benzofuran-7-yl]methoxy}-2,3-dimethylphenyl)propanoic acid]",0.067
7,"CCc1cc2cc(F)cc(COc3c(F)cc(CCC(=O)O)cc3F)c2o1 [Compound 17, 3-{4-[(2-Ethyl-5-fluoro-1-benzofuran-7-yl)methoxy]-3,5-difluorophenyl}propanoic acid]",0.345
8,"Cc1oc2c(COc3ccc(CCC(=O)O)c(C)c3C)cc(F)cc2c1F [Compound 5, 3-{4-[(3,5-Difluoro-2-methyl-1-benzofuran-7-yl)methoxy]-2,3-dimethylphenyl}propanoic acid]",1.24
9,"Cc1cc2c(F)c(OC(F)(F)F)c(F)c(COc3ccc(CCC(=O)O)c(F)c3F)c2o1 [Compound 75, 3-(4-{[4,6-Difluoro-2-methyl-5-(trifluoromethoxy)-1-benzofuran-7-yl]methoxy}-2,3-difluorophenyl)propanoic acid]",0.182
10,"Cc1cc2cc(Cl)cc(COc3ccc(CCC(=O)O)c(C)c3C)c2s1 [Compound 91, 3-{4-[(5-Chloro-2-methyl-1-benzothiophen-7-yl)methoxy]-2,3-dimethylphenyl}propanoic acid]",1.92
11,"Cc1c(CCC(=O)O)ccc(OCc2cc(F)cc3cc(C(C)C)oc23)c1C [Compound 22, 3-(4-{[5-Fluoro-2-(1-methylethyl)-1-benzofuran-7-yl]methoxy}-2,3-dimethylphenyl)propanoic acid]",0.166
12,"CCc1cc2cc(Cl)c(OC(C)C)c(COc3ccc(CCC(=O)O)c(C)c3C)c2o1 [Compound 65, 3-(4-{[5-Chloro-2-ethyl-6-(1-methylethoxy)-1-benzofuran-7-yl]methoxy}-2,3-dimethylphenyl)propanoic acid]",0.096
13,"CC#Cc1cc(COc2ccc(CCC(=O)O)c(C)c2C)c2oc(CCC)cc2c1 [Compound 58, 3-{2,3-Dimethyl-4-[(2-propyl-5-prop-1-yn-1-yl-1-benzofuran-7-yl)methoxy]phenyl}propanoic acid]",0.087
14,"CCc1cc2cc(Cl)c(OCC(C)C)c(COc3ccc(CCC(=O)O)c(C)c3C)c2o1 [Compound 67, 3-(4-{[5-Chloro-2-ethyl-6-(2-methylpropoxy)-1-benzofuran-7-yl]methoxy}-2,3-dimethylphenyl)propanoic acid]",0.093
15,"CCOc1c(Cl)cc2cc(CC)oc2c1COc1ccc(CCC(=O)O)c(C)c1C [Compound 62, 3-{4-[(5-Chloro-6-ethoxy-2-ethyl-1-benzofuran-7-yl)methoxy]-2,3-dimethylphenyl}propanoic acid]",0.067
16,"CCOc1ccc2cc(CC)oc2c1COc1ccc(CCC(=O)O)c(C)c1C [Compound 66, 3-{4-[(6-Ethoxy-2-ethyl-1-benzofuran-7-yl)methoxy]-2,3-dimethylphenyl}propanoic acid]",0.077
17,"Cc1c(CCC(=O)O)ccc(OCc2cc(Cl)cc3cn(C)nc23)c1C [Compound 8, 3-{4-[(5-Chloro-2-methyl-2H-indazol-7-yl)methoxy]-2,3-dimethylphenyl}propanoic acid]",0.297
18,"Cc1c(CCC(=O)O)ccc(OCc2cc(Cl)cc3cc(CC(F)F)oc23)c1C [Compound 87, 3-(4-{[5-Chloro-2-(2,2-difluoroethyl)-1-benzofuran-7-yl]methoxy}-2,3-dimethylphenyl)propanoic acid]",0.079

# Compounds with a lower EC50, results first:
row,EC50 [µM],Compound
1,0.03,"Cc1c(CCC(=O)O)ccc(OCc2cc(OC(F)(F)F)cc3cc(CC(F)F)oc23)c1C [Compound 96, 3-(4-{[2-(2,2-Difluoroethyl)-5-(trifluoromethoxy)-1-benzofuran-7-yl]methoxy}-2,3-dimethylphenyl)propanoic acid]"
2,0.064,"Cc1cc2c(F)c(OC(F)(F)F)c(F)c(COc3ccc(CCC(=O)O)c(C)c3C)c2o1 [Compound 71, 3-(4-{[4,6-Difluoro-2-methyl-5-(trifluoromethoxy)-1-benzofuran-7-yl]methoxy}-2,3-dimethylphenyl)propanoic acid]"
3,0.029,"CCc1cc2cc(OC(F)(F)F)cc(COc3ccc(CCC(=O)O)c4c3CCC4)c2o1 [Compound 52, 3-(7-{[2-Ethyl-5-(trifluoromethoxy)-1-benzofuran-7-yl]methoxy}-2,3-dihydro-1H-inden-4-yl)propanoic acid]"
4,0.023,"CCc1cc2cc(Cl)cc(COc3ccc(CCC(=O)O)c(C)c3C)c2o1 [Compound 11, 3-{4-[(5-Chloro-2-ethyl-1-benzofuran-7-yl)methoxy]-2,3-dimethylphenyl}propanoic acid]"
5,0.034,"CCc1cc2cc(Cl)c(C)c(COc3ccc(CCC(=O)O)c(C)c3C)c2o1 [Compound 40, 3-{4-[(5-Chloro-2-ethyl-6-methyl-1-benzofuran-7-yl)methoxy]-2,3-dimethylphenyl}propanoic acid]"
6,0.036,"CCc1cc2cc(Cl)cc(COc3ccc(CCC(=O)O)c4c3CCC4)c2o1 [Compound 54, 3-{7-[(5-Chloro-2-ethyl-1-benzofuran-7-yl)methoxy]-2,3-dihydro-1H-inden-4-yl}propanoic acid]"
7,0.04,"CCCc1cc2cc(OC(F)(F)F)cc(COc3ccc(CCC(=O)O)c(C)c3C)c2o1 [Compound 35, 3-(2,3-Dimethyl-4-{[2-propyl-5-(trifluoromethoxy)-1-benzofuran-7-yl]methoxy}phenyl)propanoic acid]"
8,0.02,"Cc1cc2cc(Cl)cc(COc3ccc(CCC(=O)O)c(C)c3C)c2o1 [Compound 78, 3-{4-[(5-Chloro-2-methyl-1-benzofuran-7-yl)methoxy]-2,3-dimethylphenyl}propanoic acid]"
9,0.051,"Cc1cc2cc(F)cc(COc3ccc(CCC(=O)O)c(C)c3C)c2o1 [Compound 2, 3-{4-[(5-Fluoro-2-methyl-1-benzofuran-7-yl)methoxy]-2,3-dimethylphenyl}propanoic acid]"
10,0.018,"Cc1nc2c(COc3ccc(CCC(=O)O)c(C)c3C)cc(Cl)cc2s1 [Compound 98, 3-{4-[(6-Chloro-2-methyl-1,3-benzothiazol-4-yl)methoxy]-2,3-dimethylphenyl}propanoic acid]"
11,0.059,"CCCc1cc(OCc2cc(OC(F)(F)F)cc3cc(CC)oc23)c(F)cc1CCC(=O)O [Compound 50, 3-(4-{[2-Ethyl-5-(trifluoromethoxy)-1-benzofuran-7-yl]methoxy}-5-fluoro-2-propylphenyl)propanoic acid]"
12,0.024,"CCc1cc2cc(Cl)c(CC)c(COc3ccc(CCC(=O)O)c(C)c3C)c2o1 [Compound 61, 3-{4-[(5-Chloro-2,6-diethyl-1-benzofuran-7-yl)methoxy]-2,3-dimethylphenyl}propanoic acid]"
13,0.056,"CCc1cc2cc(Cl)c(OCC(F)(F)F)c(COc3ccc(CCC(=O)O)c(C)c3C)c2o1 [Compound 64, 3-(4-{[5-Chloro-2-ethyl-6-(2,2,2-trifluoroethoxy)-1-benzofuran-7-yl]methoxy}-2,3-dimethylphenyl)propanoic acid]"
14,0.043,"CCCc1cc2cc(C(F)(F)F)cc(COc3ccc(CCC(=O)O)c(C)c3C)c2o1 [Compound 37, 3-(2,3-Dimethyl-4-{[2-propyl-5-(trifluoromethyl)-1-benzofuran-7-yl]methoxy}phenyl)propanoic acid]"
15,0.017,"Cc1cc2cc3c(c(COc4ccc(CCC(=O)O)c(C)c4C)c2o1)OC(F)(F)O3 [Compound 89, 3-{4-[(2,2-Difluoro-6-methylfuro[2,3-f][1,3]benzodioxol-4-yl)methoxy]-2,3-dimethylphenyl}propanoic acid]"
16,0.017,"CCc1cc2cc(OC(F)F)cc(COc3ccc(CCC(=O)O)c(C)c3C)c2o1 [Compound 57, 3-(4-{[5-(Difluoromethoxy)-2-ethyl-1-benzofuran-7-yl]methoxy}-2,3-dimethylphenyl)propanoic acid]"
17,0.015,"Cc1cc2cc(Cl)c(C)c(COc3ccc(CCC(=O)O)c(C)c3C)c2o1 [Compound 85, 3-{4-[(5-Chloro-2,6-dimethyl-1-benzofuran-7-yl)methoxy]-2,3-dimethylphenyl}propanoic acid]"
